Data from patent publication US4368267A, “Epoxidation of lower α-olefins” (priority 1980, dated 1983).

Tests used:
[1] = system: P(40), P(80), S(80) cell fractions of Methylosinus sp. (CRL-15, NRRL B-11,202); test: Oxidation of n-alkanes and n-alkenes by cell fractions; type: biochemical; details: for % Inhibition, Propylene-Epoxidizing Activity / % Inhibition, Methane-Hydroxylating Activity / Methane-Oxidizing Activity in presence of metal / Propylene-Oxidizing Activity in presence of metal: P(40) fraction; for % Inhibition, Propylene-Epoxidizing Activity / % Inhibition, Methane-Hydroxylating Activity: inhibitor 10^-3 M; for % Inhibition, Propylene-Epoxidizing Activity: uninhibited rate 4.1; for % Inhibition, Methane-Hydroxylating Activity: uninhibited rate 4.5; for Rate of Product Formation (substrate to 1,2-epoxide or alcohol): P(40) particulate fraction, 30° C.; for Methane-Oxidizing Activity in presence of metal / Propylene-Oxidizing Activity in presence of metal: metal 10^-3 M; for Methane-Oxidizing Activity in presence of metal: control 4.0; for Propylene-Oxidizing Activity in presence of metal: control […]
Description: Cells were washed twice with 25 mM potassium phosphate buffer, pH 7.0 containing 5 mM MgCl2. Cells were suspended in the same buffer. The cell suspensions at 4° C. were disintegrated by a single passage through a French Pressure cell (15,000 lb./in.^2) and centrifuged at 5000×g. for 15 min. to remove unbroken bacteria. The supernatant solution (crude extract) was then centrifuged at 40,000×g. for 30 min., yielding particulate P(40) and soluble S(40) fractions. The S(40) fraction was subsequently centrifuged at 80,000×g. for 60 min., yielding particulate P(80) and soluble S(80) fractions. The particulate fractions [P(40) and P(80)] were suspended in 25 mM potassium phosphate buffer, pH 7.0, containing 5 mM MgCl2 and homogenized at 4° C.
[…] The reaction mixtures contained in 1.0 ml: 150 mM potassium phosphate buffer, pH 7.0 containing 5 mM MgCl2, 0.6 ml; […] NADH, and cellular fraction.
Reaction mixtures were contained in 10 ml vials at 4° C. Vials were sealed with rubber caps. The gaseous phase in the vials was removed using vacuum and then was replaced with a gas mixture of methane or propylene and oxygen at a 1:1, v/v ratio. Oxidation of other gaseous n-alkanes and n-alkenes was examined as described above. For liquid substrates, 10 μl of substrate was used directly.
The products of epoxidation of n-alkenes and hydroxylation of n-alkanes were assayed by flame ionization gas chromatography using a stainless steel column (12'×1/8") packed with 10% Carbowax 20 M on 80/100 Chromosorb W and Porapak Q column. The column temperature was maintained isothermally at 120° C. The carrier gas flow rate was 30 ml/min. of helium. The various products were identified by retention time comparisons and co-chromatography with authentic standards.
Specific activities were expressed as μ moles of products formed per hour per mg. protein. Concentrations of protein in various fractions were determined by the method of Lowry et al., J. Biol. Chem. 193: 265-275 (1951).

[2] = system: Methylosinus trichosporium OB3b (NRRL B-11,196); test: Methane hydroxylation and alkene epoxidation by washed cell suspensions; type: cell-based; details: methane-grown washed cells, 30° C.
Description: (§1) The pH of the nutrient medium was adjusted to 7.0 by the addition of acid or base and 50 ml aliquots of the nutrient medium was charged into a plurality of 300 ml shake flasks. […] The isolates had been maintained on agar plates under an atmosphere of methane and air having a 1:1 v/v gas ratio which had been transferred every two weeks. The gaseous phase of the inoculated flasks was then replaced with a gas mixture comprised of methane and air having a ratio of 1:1 on a v/v basis. The inoculated flasks were sealed air tight and were incubated on a rotary shaker of orbital radius 2.5 cm at 250 rpm and at 30° C. for two days until the turbidity in the medium had developed.
(§2) The cells were harvested by centrifugation at 10,000 ×g at 4° C. for 30 minutes. The cell pellet was washed twice with a 0.15 M phosphate buffer at a pH of 7.0 (containing 0.002 M MgCl2). The washed cells were then suspended in a 0.15 M phosphate buffer at pH 7.0.
[…] The gaseous phase of the vials was removed with vacuum and then was replaced with a gas mixture of alkene and oxygen at a 1:1 v/v ratio. It was then incubated at 30° C. on a rotary shaker at 300 rpm. Samples of product (3 μl) were withdrawn periodically with a microsyringe and the products were analyzed by gas chromatography (ionization flame detector column).

[3] = system: Methylosinus sporium 5 (NRRL B-11,197); test: as above; type: cell-based; details: methane-grown washed cells, 30° C.
Description: as §1, §2
(§3) A 0.5 ml aliquot of each washed cell suspension (2 mg cells) was put into 10 ml vials at 4° C. which were sealed with a rubber cap. […] It was then incubated at 30° C. on a rotary shaker at 300 rpm. Samples of product (3 μl) were withdrawn periodically with a microsyringe and the products were analyzed by gas chromatography (ionization flame detector column).

[4] = system: Methylobacterium organophilum (CRL 26, NRRL B-11,222); test: Epoxidation/hydroxylation by washed cell suspensions; type: cell-based; details: Propylene + 5 mM stimulator compound
Description: (§4) The pH of the nutrient medium was adjusted to 7.0 by the addition of acid or base and 50 ml aliquots of the nutrient medium was charged into a plurality of 300 ml shake flasks. The shake flasks were inoculated with an inoculating loop of cells from an agar plate containing homogeneous colonies of the microorganisms on the plate (the purity of the isolates were confirmed by microscopic examination). The isolates had been maintained on agar plates under an atmosphere of methane and air having a 1:1 v/v gas ratio which had been transferred every two weeks. The gaseous phase of the inoculated flasks was then replaced with a gas mixture comprised of methane and air having a ratio of 1:1 on a v/v basis. The inoculated flasks were sealed air tight and were incubated on a rotary shaker of orbital radius 2.5 cm at 250 rpm and at 30° C. for two days until the turbidity in the medium had developed.
as §2
(§5) A 0.5 ml aliquot of each washed cell suspension (2 mg cells) was put into 10 ml vials at 4° C. which were sealed with a rubber cap. The gaseous phase of the vials was removed with vacuum and then was replaced with a gas mixture of alkene and oxygen at a 1:1 v/v ratio. It was then incubated at 30° C. on a rotary shaker at 300 rpm. Samples of product (3 μl) were withdrawn periodically with a microsyringe and the products were analyzed by gas chromatography (ionization flame detector column).
(§6) Several experiments were carried out using a plurality of compounds capable of generating the necessary reducing power (NADH2 or NADPH2) required for the epoxidation of alkenes or dienes. These experiments were carried out using cell suspensions of methane grown methylotrophs using the procedure as described in Example 1 except that a stimulator compound was added to the reaction medium.

[5] = system: Methylococcus capsulatus strain MC; test: Stimulation of propylene epoxidation in cell suspensions; type: cell-based; details: Propylene + 5 mM stimulator compound
Description: as §4, §2, §5, §6

[6] = system: Methylococcus capsulatus (CRL M1, NRRL B-11,219); test: Oxidation/epoxidation by washed cell suspensions; type: cell-based; details: methane-grown washed cells
[7] = system: Methylobacter capsulatus Y (NRRL B-11,201); test: Methane hydroxylation and propylene epoxidation by washed cell suspensions; type: cell-based; details: Propylene + 5 mM stimulator compound
Description: as §4, §2, §3
Several experiments were carried out using a plurality of compounds capable of generating the necessary reducing power (NADH2 or NADPH2) required for the epoxidation of alkenes or dienes. […]

[8] = system: whole cell suspensions of methylotrophs (C1 -utilizing microbes); details: 2-butanol added; biocatalyst from C1 -C4 gaseous alkane-grown microbes

**Q.** For Oc1cccc2cccnc12 [8-Hydroxyquinoline, reference compound], which “% Inhibition, Propylene-Epoxidizing Activity” value [1] is on record?
**A.** 75%

**Q.** And the “% Inhibition, Methane-Hydroxylating Activity” value [1]?
**A.** 80%

**Q.** How did the “Conversion rate, butadiene to 1,2-epoxybutene” value [2] turn out when C=CC=C [Butadiene] was run?
**A.** 2.6 μmole/hr/mg protein

**Q.** What about the “Conversion rate, butadiene to 1,2-epoxybutene” value [3] of the same compound?
**A.** 1.5 μmole/hr/mg protein

**Q.** And the “Rate of Product Formation (substrate to 1,2-epoxide or alcohol)” value (shortened to “Rate … (substrate to 1,2-epoxide or alcohol)”) [1]?
**A.** 0.63 μmoles/hr/mg of protein

**Q.** With [Cl][Fe]([Cl])[Cl] [Ferric Chloride] as the compound, how does the “Methane-Oxidizing Activity in presence of metal” value [1] read?
**A.** 4.8 μmoles/hr/mg protein

**Q.** What about the “Propylene-Oxidizing Activity in presence of metal” value [1] of the same compound?
**A.** 5.8 μmoles/hr/mg protein

**Q.** How did the “Conversion rate, butene-1 to 1,2-epoxybutane” value [2] turn out when C=CCC [Butene-1] was run?
**A.** 0.45 μmole/hr/mg protein

**Q.** What about the “Conversion rate, butene-1 to 1,2-epoxybutane” value [3] of the same compound?
**A.** 0.8 μmole/hr/mg protein

**Q.** What about the “Rate … (substrate to 1,2-epoxide or alcohol)” value [1] of the same compound?
**A.** 2.18 μmoles/hr/mg of protein

**Q.** How did the “Rate of Product Formation (Propylene Oxide)” value (“Rate … (Propylene Oxide)” below) [4] turn out when CC=O [Acetaldehyde] was run?
**A.** 13 nmoles/hr/mg protein

**Q.** What about the “Rate … (Propylene Oxide)” value [5] of the same compound?
**A.** 154 nmoles/hr/mg protein

**Q.** C=CC(=C)C [Isoprene] was tested. Which “Reaction Rate, isoprene to 1,2-epoxyisoprene” value [6] did it give?
**A.** 0.064 μmoles/hr/mg biomass

**Q.** Which “Conversion rate, Pentane-1 to 1,2-epoxypentane” value [2] does the source give for C=CCCC [Pentane-1, pentene-1] here?
**A.** 0 μmole/hr/mg protein

**Q.** And the “Conversion rate, pentene-1 to 1,2-epoxypentane” value [2]?
**A.** did not produce any detectable epoxide

**Q.** And the “Conversion rate, Pentane-1 to 1,2-epoxypentane” value [3]?
**A.** 0 μmole/hr/mg protein

**Q.** What about the “Conversion rate, pentene-1 to 1,2-epoxypentane” value [3] of the same compound?
**A.** did not produce any detectable epoxide

**Q.** And the “Rate … (substrate to 1,2-epoxide or alcohol)” value [1]?
**A.** 0 μmoles/hr/mg of protein

**Q.** What does the source list for CCC(C)O (centres unmarked) [2-Butanol]?
**A.** Rate of Product Formation (Propylene Oxide) [7]: 26 nmoles/hr/mg protein; Rate of Product Formation (Propylene Oxide) [5]: 21 nmoles/hr/mg protein; Effect on epoxidation of gaseous n-alkenes [8]: somehow inhibited

**Q.** NC(N)=S [Thiourea, reference compound] was tested. Which “% Inhibition, Propylene-Epoxidizing Activity” value [1] did it give?
**A.** 98%

**Q.** What about the “% Inhibition, Methane-Hydroxylating Activity” value [1] of the same compound?
**A.** 98%

**Q.** How did the “Methane-Oxidizing Activity in presence of metal” value [1] turn out when Ferrous Sulfate was run?
**A.** 4.8 μmoles/hr/mg protein

**Q.** What about the “Propylene-Oxidizing Activity in presence of metal” value [1] of the same compound?
**A.** 5.9 μmoles/hr/mg protein

**Q.** Which “% Inhibition, Propylene-Epoxidizing Activity” value [1] does the source give for NNC(N)=S [Thiosemicarbazide, reference compound] here?
**A.** 97%

**Q.** And the “% Inhibition, Methane-Hydroxylating Activity” value [1]?
**A.** 100%

**Q.** Which results are given for CCC=O [Propionaldehyde]?
**A.** Rate of Product Formation (Propylene Oxide) [7]: 54 nmoles/hr/mg protein; Rate of Product Formation (Propylene Oxide) [5]: 40 nmoles/hr/mg protein

**Q.** CC(C)O [Isopropanol] was tested. Which “Rate … (Propylene Oxide)” value [7] did it give?
**A.** 13 nmoles/hr/mg protein

**Q.** And the “Rate … (Propylene Oxide)” value [4]?
**A.** 20 nmoles/hr/mg protein

**Q.** What about the “Rate … (Propylene Oxide)” value [5] of the same compound?
**A.** 37 nmoles/hr/mg protein
